# Values of other authors as cited in PubChem BioAssay AID1259409 (Chemical Carcinogenesis Research Information System (CCRIS), 2018).
# Tested on: rodent chemically induced tumor inhibition, incidence and multiplicity
# Assay: CCRIS tumor inhibitor studies
# Details: Dose [Inhibitor]: 0, Promoter: NONE USED
compound,measurement,setting,value
Cn1c(=O)c2c(ncn2C)n(C)c1=O,"tumour outcome (control, treated, inhibition, significance)","Carcinogen: 7,12-DIMETHYLBENZ[A]ANTHRACENE, 57-97-6, 500 MG/L IN DRINKING WATER OF 58 DAY OLD VIRGIN RATS (STUDY DURATION: 56 WK), Route [Inhibitor]: ORAL, Species: RAT, Strain/Sex: SPRAGUE-DAWLEY/FEMALE, Target Tissue: Type of Lesion: MAMMARY GLAND: FIBROADENOMA, Dose [Carcinogen]: 2 MG/100 G BW ONCE AT 55 D OF AGE","86%, 68%, 21%, not significant"
same,"tumour outcome (control, treated, inhibition, significance)","Carcinogen: 7,12-DIMETHYLBENZ[A]ANTHRACENE, 57-97-6, 500 MG/L IN DRINKING WATER OF 150 DAY OLD PAROUS RATS (STUDY DURATION: 165 D), Route [Inhibitor]: ORAL, Species: RAT, Strain/Sex: SPRAGUE-DAWLEY/FEMALE, Target Tissue: Type of Lesion: MAMMARY GLAND: CARCINOMA, Dose [Carcinogen]: 20 MG/ML IN CORN OIL ONCE AT 135 D OF AGE","21%, 3%, 86%, not calculated"
same,"tumour outcome (control, treated, inhibition, significance)","Carcinogen: 7,12-DIMETHYLBENZ[A]ANTHRACENE, 57-97-6, 500 MG/L IN DRINKING WATER OF 150 DAY OLD PAROUS RATS (STUDY DURATION: 165 D), Route [Inhibitor]: ORAL, Species: RAT, Strain/Sex: SPRAGUE-DAWLEY/FEMALE, Target Tissue: Type of Lesion: MAMMARY GLAND: FIBROADENOMA, Dose [Carcinogen]: 20 MG/ML IN CORN OIL ONCE AT 135 D OF AGE","62%, 40%, 35%, not significant"
same,"tumour outcome (control, treated, inhibition, significance)","Carcinogen: 7,12-DIMETHYLBENZ[A]ANTHRACENE, 57-97-6, 500 MG/L IN DRINKING WATER OF 150 DAY OLD VIRGIN RATS (STUDY DURATION: 165 D), Route [Inhibitor]: ORAL, Species: RAT, Strain/Sex: SPRAGUE-DAWLEY/FEMALE, Target Tissue: Type of Lesion: MAMMARY GLAND: CARCINOMA, Dose [Carcinogen]: 20 MG/ML IN CORN OIL ONCE AT 135 D OF AGE","45%, 20%, 56%, p<0.05"
same,"tumour outcome (control, treated, inhibition, significance)","Carcinogen: 7,12-DIMETHYLBENZ[A]ANTHRACENE, 57-97-6, 500 MG/L IN DRINKING WATER OF 150 DAY OLD VIRGIN RATS (STUDY DURATION: 165 D), Route [Inhibitor]: ORAL, Species: RAT, Strain/Sex: SPRAGUE-DAWLEY/FEMALE, Target Tissue: Type of Lesion: MAMMARY GLAND: FIBROADENOMA, Dose [Carcinogen]: 20 MG/ML IN CORN OIL ONCE AT 135 D OF AGE","72%, 43%, 40%, p<0.05"
same,"tumour outcome (control, treated, inhibition, significance)","Carcinogen: 17BETA-ESTRADIOL, 50-28-2, PROGESTERONE, 57-83-0, Carcinogen: 17BETA-ESTRADIOL, 50-28-2, PROGESTERONE, 57-83-0, 500 MG/L IN DISTILLED DRINKING WATER FOR 23 WK BEGINNING 1 WK POST FIRST CARCINOGEN DOSE (STUDY DURATION: 24 WK), Route [Inhibitor]: ORAL, Species: MOUSE, Strain/Sex: GR/A/FEMALE, Target Tissue: Type of Lesion: MAMMARY GLAND: TUMOR, Dose [Carcinogen]: 0.5 MG/L 17BETA-ESTRADIOL IN DRINKING WATER FOR 24 WK AND 30 MG PROGESTERONE IN PELLETS RENEWED EVERY 30 D FOR 24 WK","55/55 (100%), 52/55 (95%), 5%, not significant"
same,"tumour outcome (control, treated, inhibition, significance)","Carcinogen: 17BETA-ESTRADIOL, 50-28-2, PROGESTERONE, 57-83-0, Carcinogen: 17BETA-ESTRADIOL, 50-28-2, PROGESTERONE, 57-83-0, 500 MG/L IN DISTILLED DRINKING WATER FOR 23 WK BEGINNING 1 WK POST FIRST CARCINOGEN DOSE (STUDY DURATION: 24 WK), Route [Inhibitor]: ORAL, Species: MOUSE, Strain/Sex: GRS/SN/FEMALE, Target Tissue: Type of Lesion: MAMMARY GLAND: TUMOR, Dose [Carcinogen]: 0.5 MG/L 17BETA-ESTRADIOL IN DRINKING WATER FOR 24 WK AND 30 MG PROGESTERONE IN PELLETS RENEWED EVERY 30 D FOR 24 WK","46/47 (98%), 44/45 (98%), 0%, not significant"
same,"tumour outcome (control, treated, inhibition, significance)","Carcinogen: BENZO[A]PYRENE, 50-32-8, 1 MG/D FOR 6 WK (STUDY DURATION: 9 WK), Route [Inhibitor]: GAVAGE, Species: MOUSE, Strain/Sex: NIGP(S)/FEMALE, Target Tissue: Type of Lesion: LUNG: ADENOMA, Dose [Carcinogen]: 0.5 MG INJECTED IN THE SCAPULAR REGION OF NEWBORN MICE ONCE","35%, 21%, 40%, not calculated"
same,"tumour outcome (control, treated, inhibition, significance)","Carcinogen: BENZO[A]PYRENE, 50-32-8, 1 MG/D FOR 6 WK (STUDY DURATION: 9 WK), Route [Inhibitor]: GAVAGE, Species: MOUSE, Strain/Sex: NIGP(S)/MALE, Target Tissue: Type of Lesion: LUNG: ADENOMA, Dose [Carcinogen]: 0.5 MG INJECTED IN THE SCAPULAR REGION OF NEWBORN MICE ONCE","48%, 18%, 63%, not calculated"
same,"tumour outcome (control, treated, inhibition, significance)","Carcinogen: BENZO[A]PYRENE, 50-32-8, 2 MG/D FOR 6 WK (STUDY DURATION: 9 WK), Route [Inhibitor]: GAVAGE, Species: MOUSE, Strain/Sex: NIGP(S)/FEMALE, Target Tissue: Type of Lesion: LUNG: ADENOMA, Dose [Carcinogen]: 0.5 MG INJECTED IN THE SCAPULAR REGION OF NEWBORN MICE ONCE","35%, 5%, 86%, not calculated"
same,"tumour outcome (control, treated, inhibition, significance)","Carcinogen: BENZO[A]PYRENE, 50-32-8, 2 MG/D FOR 6 WK (STUDY DURATION: 9 WK), Route [Inhibitor]: GAVAGE, Species: MOUSE, Strain/Sex: NIGP(S)/MALE, Target Tissue: Type of Lesion: LUNG: ADENOMA, Dose [Carcinogen]: 0.5 MG INJECTED IN THE SCAPULAR REGION OF NEWBORN MICE ONCE","48%, 5%, 90%, not calculated"
same,"tumour outcome (control, treated, inhibition, significance)","Carcinogen: DIETHYLNITROSAMINE, 55-18-5, 300 MG/L IN DRINKING WATER BEGINNING 3 D PRIOR TO FIRST CARCINOGEN DOSE AND CONTINUING TO 14 D POST LAST CARCINOGEN D, Route [Inhibitor]: ORAL, Species: RAT, Strain/Sex: BD6/FEMALE, Target Tissue: Type of Lesion: ESOPHAGUS: TUMOR, Dose [Carcinogen]: 80 MG/KG BW 1/WK FOR 9 WK","50%, 54%, -8%, not significant"
same,"tumour outcome (control, treated, inhibition, significance)","Carcinogen: DIETHYLNITROSAMINE, 55-18-5, 300 MG/L IN DRINKING WATER BEGINNING 3 D PRIOR TO FIRST CARCINOGEN DOSE AND CONTINUING TO 14 D POST LAST CARCINOGEN D, Route [Inhibitor]: ORAL, Species: RAT, Strain/Sex: BD6/FEMALE, Target Tissue: Type of Lesion: LIVER: TUMOR, Dose [Carcinogen]: 80 MG/KG BW 1/WK FOR 9 WK","100%, 95%, 5%, not significant"
